Measurements from patent publication US9884818B2, “Sulphamoylpyrrolamide derivatives and the use thereof as medicaments for the treatment of hepatitis B” (Janssen Sciences Ireland UC, priority 2013, dated 2018).

Tests used:
HBV [1] = assay: Anti-HBV activity, HepG2.117 inducibly HBV producing cell line (Tet-off), intracellular HBV DNA by realtime PCR; format: cell-based; conditions: HepG2.117 cells, 3 days of treatment, intracellular HBV DNA, read-out: HepG2 117 EC50
HepG2 cells = assay: Cytotoxicity in HepG2 cells, Resazurin viability assay; conditions: read-out: HepG2 4 days CC50; HepG2 cells, incubated for 4 days, Resazurin assay
HBV [2] = assay: Anti-HBV activity, HepG2.2.15 stable transfected cell line, HBV DNA from secreted virions by realtime PCR; format: cell-based; conditions: HepG2.2.15 cells, 6 days of treatment, HBV DNA from secreted virions, read-out: HepG2 2.15 EC50
[3] = Cytotoxicity in HepG2 cells, Resazurin viability assay; conditions: human, HepG2 cells, HepG2 4 days CC50 (μM), incubated for 4 days, Resazurin assay
[4] = Hepatitis B virus, HepG2.117, 72 h
[5] = Hepatitis B virus, HepG2.2.15, 144 h

| SMILES | EC50 (HBV [1]) [nM] | CC50 (HepG2 cells) [nM] | EC50 (HBV [2]) [nM] | EC50 (HBV [1]; [4]) [nM] | CC50 at 4 days [3] [µM] | EC50 (HBV [2]; [5]) [nM] |
| --- | --- | --- | --- | --- | --- | --- |
| CC(NS(=O)(=O)c1cc(C(=O)Nc2ccc(F)c(C#N)c2)n(C)c1)C(F)F (single isomer, unassigned) [Compound 200b, N-(3-Cyano-4-fluorophenyl)-4-{[2,2-difluoro-1-methylethyl]sulfamoyl}-1-methyl-1H-pyrrole-2-carboxamide] | 100 | > 25000 | 90 |  |  |  |
| CCC(C)(NS(=O)(=O)c1cc(C(=O)Nc2cc(F)c(F)c(Cl)c2)n(C)c1)C(F)(F)F (single isomer, unassigned) [Compound 165b, N-(3-chloro-4,5-difluoro-phenyl)-1-methyl-4-[[1-methyl-1-(trifluoro-methyl)propyl]sulfamoyl]pyrrole-2-carboxamide] | 20 | 4800 | 120 |  |  |  |
| CC(CC(F)(F)F)NS(=O)(=O)c1cc(C(=O)Nc2cc(F)c(F)c(Cl)c2)n(C)c1 (single isomer, unassigned) [Compound 169b, N-(3-Chloro-4,5-difluorophenyl)-1-methyl-4-[(3,3,3-trifluoro-1-methylpropyl)sulfamoyl]-1H-pyrrole-2-carboxamide] | 30 | 17100 | 40 |  |  |  |
| Cn1cc(S(=O)(=O)NC2(C(F)(F)F)CCOC2)cc1C(=O)Nc1ccc(F)c(C#N)c1 (single isomer, unassigned) [Compound 228b, N-(3-Cyano-4-fluorophenyl)-1-methyl-4-{[3-(trifluoromethyl)tetrahydrofuran-3-yl]sulfamoyl}-1H-pyrrole-2-carboxamide] |  | > 25000 | 30 |  |  |  |
| Cc1c(F)ccc(NC(=O)c2cc(S(=O)(=O)NC(C)(C)C(F)(F)F)cn2C)c1F [Compound 118, N-(2,4-Difluoro-3-methylphenyl)-1-methyl-4-[(2,2,2-trifluoro-1,1-dimethylethyl)sulfamoyl]-1H-pyrrole-2-carboxamide] |  |  |  | 20 | > 25 | 50 |
| C[C@H](NS(=O)(=O)c1cc(C(=O)Nc2cccc(C#N)c2)n(C)c1)C(F)(F)F [Compound 197, N-(3-Cyanophenyl)-1-methyl-4-{[(1S)-2,2,2-trifluoro-1-methylethyl]-sulfamoyl}-1H-pyrrole-2-carboxamide] |  |  |  | 90 | > 25 | 120 |
| C[C@@H](NS(=O)(=O)c1cc(C(=O)Nc2cc(F)c(F)c(Br)c2)n(C)c1)C(F)(F)F [Compound 205, N-(3-Bromo-4,5-difluorophenyl)-1-methyl-4-{[(1R)-2,2,2-trifluoro-1-methylethyl]sulfamoyl}-1H-pyrrole-2-carboxamide] |  |  |  | 30 | 13 | 80 |
| CC[C@@H](C)NS(=O)(=O)c1cn(C)c(C(=O)Nc2ccc(F)c(C#N)c2)c1Cl [Compound 295, 3-chloro-N-(3-cyano-4-fluoro-phenyl)-1-methyl-4-[[(1R)-1-methyl-propyl]sulfamoyl]pyrrole-2-carboxamide] |  |  |  | 30 | > 25 | 20 |
| C[C@@H](NS(=O)(=O)c1cn(C)c(C(=O)Nc2ccc(F)c(C#N)c2F)c1F)C(F)(F)F [Compound 181, N-(3-Cyano-2,4-difluorophenyl)-3-fluoro-1-methyl-4-{[(1R)-2,2,2-trifluoro-1-methylethyl]sulfamoyl}-1H-pyrrole-2-carboxamide] |  |  |  | 6 | > 25 | 8 |
| Cn1cc(S(=O)(=O)NC2(C)CC(F)(F)C2)cc1C(=O)Nc1ccc(F)c(Cl)c1F [Compound 256, N-(3-chloro-2,4-difluoro-phenyl)-4-[(3,3-difluoro-1-methyl-cyclo-butyl)sulfamoyl]-1-methyl-1H-pyrrole-2-carboxamide] |  |  |  | 30 | > 25 | 20 |
| Cn1cc(S(=O)(=O)NC2CC(F)(F)C2)cc1C(=O)Nc1cc(F)c(F)c(Cl)c1 [Compound 164, N-(3-Chloro-4,5-difluorophenyl)-4-[(3,3-difluorocyclobutyl)sulfamoyl]-1-methyl-1H-pyrrole-2-carboxamide] |  |  |  | 130 | > 25 | 130 |
| C[C@@H](NS(=O)(=O)c1cn(C)c(C(=O)Nc2ccc(F)c(Cl)c2Cl)c1Cl)C(F)(F)F [Compound 277, 3-chloro-N-(2,3-dichloro-4-fluoro-phenyl)-1-methyl-4-[[(1R)-2,2,2-trifluoro-1-methyl-ethyl]sulfamoyl]pyrrole-2-carboxamide] |  |  |  | 40 | > 25 | 30 |
| Cn1cc(S(=O)(=O)NC(C)(C)C)c(Cl)c1C(=O)Nc1ccc(F)c(Cl)c1 [Compound 220, 4-(tert-Butylsulfamoyl)-3-chloro-N-(3-chloro-4-fluorophenyl)-1-methyl-1H-pyrrole-2-carboxamide] |  |  |  | 40 | > 25 | 100 |
| CC(C)NS(=O)(=O)c1cn(C)c(C(=O)Nc2ccc(F)c(Br)c2)c1F [Compound 230, N-(3-Bromo-4-fluorophenyl)-3-fluoro-1-methyl-4-[(1-methylethyl)sulfamoyl]-1H-pyrrole-2-carboxamide] |  |  |  | 30 | > 25 | 8 |
| CC[C@@H](C)NS(=O)(=O)c1cc(C(=O)Nc2ccc(F)c(C#N)c2)n(C)c1 [Compound 294, N-(3-cyano-4-fluoro-phenyl)-1-methyl-4-[[(1R)-1-methylpropyl]-sulfamoyl]pyrrole-2-carboxamide] |  |  |  | 100 | > 25 | 40 |
| CC(C)NS(=O)(=O)c1cc(C(=O)Nc2ccc(F)c(Cl)c2F)n(C)c1 [Compound 172, N-(3-Chloro-2,4-difluorophenyl)-1-methyl-4-[(1-methylethyl)sulfamoyl]-1H-pyrrole-2-carboxamide] |  |  |  | 80 | > 25 | 100 |
| Cc1c(S(=O)(=O)N[C@H](C)C(F)(F)F)cn(C)c1C(=O)Nc1ccc(F)c(C#N)c1 [Compound 150, N-(3-Cyano-4-fluorophenyl)-1,3-dimethyl-4-{[(1R)-2,2,2-trifluoro-1-methylethyl]sulfamoyl}-1H-pyrrole-2-carboxamide] |  |  |  | 60 | > 25 | 90 |
| C[C@@H](NS(=O)(=O)c1cc(C(=O)Nc2ccc(F)c(C#N)c2)n(C)c1)C(F)(F)F [Compound 157, N-(3-cyano-4-fluoro-phenyl)-1-methyl-4-[[(1R)-2,2,2-trifluoro-1-methylethyl]sulfamoyl]pyrrole-2-carboxamide] |  |  |  | 50 | > 25 | 80 |
| CNC(=O)C(C)(C)NS(=O)(=O)c1cc(C(=O)Nc2ccc(F)c(C)c2)n(C)c1 [Compound 62, 4-[[1,1-dimethyl-2-(methylamino)-2-oxo-ethyl]sulfamoyl]-N-(4-fluoro-3-methyl-phenyl)-1-methyl-pyrrole-2-carboxamide] |  |  |  | 140 | > 25 | 270 |
| Cc1c(S(=O)(=O)N[C@@H](C)C(F)(F)F)cn(C)c1C(=O)Nc1ccc(F)c(Cl)c1F [Compound 209, N-(3-Chloro-2,4-difluorophenyl)-1,3-dimethyl-4-{[(1S)-2,2,2-trifluoro-1-methylethyl]sulfamoyl}-1H-pyrrole-2-carboxamide] |  |  |  | 90 | > 25 | 90 |
| C[C@H](NS(=O)(=O)c1cn(C)c(C(=O)Nc2ccc(F)c(C#N)c2)c1F)C(F)(F)F [Compound 188, N-(3-Cyano-4-fluorophenyl)-3-fluoro-1-methyl-4-{[(1S)-2,2,2-trifluoro-1-methylethyl]sulfamoyl}-1H-pyrrole-2-carboxamide] |  |  |  | 30 | > 25 | 40 |
| C[C@@H](NS(=O)(=O)c1cc(C(=O)Nc2ccc(F)c(Cl)c2F)n(C)c1)C(F)(F)F [Compound 120, N-(3-Chloro-2,4-difluorophenyl)-1-methyl-4-{[(1R)-2,2,2-trifluoro-1-methylethyl]sulfamoyl}-1H-pyrrole-2-carboxamide] |  |  |  | 30 | > 25 | 30 |
| Cn1cc(S(=O)(=O)NC2CCC(F)(F)C2)cc1C(=O)Nc1cc(F)c(F)c(Cl)c1 (single isomer, unassigned) [Compound 166a, N-(3-Chloro-4,5-difluorophenyl)-4-[(3,3-difluorocyclopentyl)sulfamoyl]-1-methyl-1H-pyrrole-2-carboxamide] |  |  | 140 | 100 | 17.9 |  |
| CC(C)NS(=O)(=O)c1cn(C)c(C(=O)Nc2ccc(F)c(Cl)c2)c1F [Compound 235, N-(3-Chloro-4-fluorophenyl)-3-fluoro-1-methyl-4-[(1-methylethyl)sulfamoyl]-1H-pyrrole-2-carboxamide] |  |  |  | 10 | > 25 | 10 |
| Cc1cc(NC(=O)c2cc(S(=O)(=O)NC3CC(=O)N(C)C3)cn2C)ccc1F (centres unmarked) [Compound 13, N-(4-fluoro-3-methyl-phenyl)-1-methyl-4-[(1-methyl-5-oxo-pyrrolidin-3-yl)sulfamoyl]pyrrole-2-carboxamide] |  |  |  | 140 | > 25 | 460 |
| CCC(C)(C)NS(=O)(=O)c1cc(C(=O)Nc2cc(F)c(F)c(Cl)c2)n(C)c1 [Compound 66, N-(3-chloro-4,5-difluoro-phenyl)-4-(1,1-dimethylpropylsulfamoyl)-1-methyl-pyrrole-2-carboxamide] |  |  |  | 30 | > 25 | 30 |
